Reference: patent US20220041588A1, “SUBSTITUTED IMIDAZO[1,2-A]PYRIDINE AND [1,2,4]TRIAZOLO[1,5-A]PYRIDINE COMPOUNDS AS RET KINASE INHIBITORS” (FOCHON PHARMACEUTICALS, LTD., priority 2018, published 2022)

Tested on: TT (RET C634W) cells
Test: Cell proliferation assay (MTS), TT cells
Type: cell-based
Settings: Homo sapiens, TT, 72 h, 72 h incubation, MTS readout
Description: MTS testing kit was purchased from Promega. The RPMI-1640, F12, F12K, Fetal bovine serum and Penicillin-Streptomycin were purchased from BI. Glutamine and Dimethyl sulfoxide (DMSO) were purchased from Sigma. TT cells were cultured in F12K supplemented with 10% FBS and LC-2/ad cells were cultured in HamF12: RPMI1640 (1:1) supplemented with 10% FBS and 2 mM Glutamine.
To investigate whether a compound is able to inhibit the activity of RET fusion and/or mutation in cells, a mechanism-based assay using TT (RET C634W) and LC-2/ad (CCDCl6-RET) cell lines was developed. In this assay, the inhibition of RET fusion and/or mutation was reflected by the inhibition of cell proliferation of TT and LC-2/ad cells. Cells were plated into 96-well plates at the optimized cell density (TT: 5000 cells/well; LC-2/ad: 5000 cells/well). Plates were incubated at 37° C., with 5% CO2 for 24 h. Compounds were serially diluted and added to the plates with the final concentrations as 10000, 3333.3, 1111.1, […], 123.5, 41.2, 13.7, 4.6 and 1.5 nM. Plates were incubated at 37° C., with 5% CO2 for 72 h. An aliquot of 20 μL MTS/100 μL medium mixture solution were added to each well and the plates were incubated for exactly 2 h. The reaction was stopped by adding 25 μL 10% SDS to each well. The absorbance was measured by a microplate reader at 490 nm and 650 nm (reference wavelength). IC50 was calculated using GraphPad Prism 5.0.

Compound	IC50 [nM]
Cn1cc(-c2cc(-c3ccc(N4CCN(Cc5cc(F)ccc5F)CC4)nc3)n3c(C#N)cnc3c2)cn1 [Example 8, 5-(6-(4-(2,5-difluorobenzyl)piperazin-1-yl)pyridin-3-yl)-7-(1-methyl-1H-pyrazol-4-yl)imidazo[1,2-a]pyridine-3-carbonitrile]	39
Cc1cccnc1CN1CCN(c2ccc(-c3cc(-c4cnn(C)c4)cc4ncc(C#N)n34)cn2)CC1 [Example 9, 7-(1-methyl-1H-pyrazol-4-yl)-5-(6-(4-((3-methylpyridin-2-yl)methyl)pi-perazin-1-yl)pyridin-3-yl)imidazo[1,2-a]pyridine-3-carbonitrile]	79
C[C@@H](C(=O)N1CCN(c2ccc(-c3cc(-c4cnn(C)c4)cc4ncc(C#N)n34)cn2)CC1)c1ccccc1 [Example 10, (R)-7-(1-methyl-1H-pyrazol-4-yl)-5-(6-(4-(2-phenylpropanoyl)piperazin-1-yl)pyridin-3-yl)imidazo[1,2-a]pyri-dine-3-carbonitrile]	6
COc1ccc(CN2CCN(c3ccc(-c4nc(-c5cnn(C)c5)cc5ncc(C#N)n45)cn3)CC2)nc1 [Example 24, 5-(6-(4-((5-methoxypyridin-2-yl)meth-yl)piperazin-1-yl)pyridin-3-yl)-7-(1-methyl-1H-pyrazol-4-yl)imidazo[1,2-c]pyrimidine-3-carbonitrile]	86
Cn1cc(-c2cc3ncc(C#N)n3c(-c3ccc(N4CCN(Cc5ccccc5)CC4)nc3)n2)cn1 [Example 25, 5-(6-(4-benzylpiperazin-1-yl)pyridin-3-yl)-7-(1-methyl-1H-pyrazol-4-yl) imidazo[1,2-c]pyrimidine-3-carbonitrile]	79
CN(C)c1ccc(CN2CCN(c3ccc(-c4cc(-c5cnn(C)c5)cc5ncc(C#N)n45)cn3)CC2)cn1 [Example 28, 5-(6-(4-((6-(dimethylamino)pyridin-3-yl)methyl)piperazin-1-yl)pyridin-3-yl)-7-(1-methyl-1H-pyrazol-4-yl)im-idazo[1,2-a]pyridine-3-carbonitrile]	79
COc1ccccc1CN1CCN(c2ccc(-c3cc(-c4cnn(C)c4)cc4ncc(C#N)n34)cn2)CC1 [Example 29, 5-(6-(4-(2-methoxybenzyl)piperazin-1-yl)pyridin-3-yl)-7-(1-methyl-1H-pyrazol-4-yl)imidazo[1,2-a]pyridine-3-carbonitrile]	84
Cn1cc(-c2cc(-c3ccc(N4CCN(Cc5c(F)cccc5F)CC4)nc3)n3c(C#N)cnc3c2)cn1 [Example 35, 5-(6-(4-(2,6-difluorobenzyl)piperazin-1-yl)pyridin-3-yl)-7-(1-methyl-1H-pyrazol-4-yl)imidazo[1,2-a]pyridine-3-carbonitrile]	1
Cn1cc(-c2cc(-c3ccc(N4CCN(Cc5ccc6ncn(C)c6c5)CC4)nc3)n3c(C#N)cnc3c2)cn1 [Example 36, 5-(6-(4-((1-methyl-1H-benzo[d]imid-azol-6-yl)methyl)piperazin-1-yl)pyri-din-3-yl)-7-(1-methyl-1H-pyrazol-4-yl)imidazo[1,2-a]pyridine-3-carboni-trile]	62
CN(C)[C@@H](C(=O)N1CCN(c2ccc(-c3cc(-c4cnn(C)c4)cc4ncc(C#N)n34)cn2)CC1)c1cccc(Cl)c1 [Example 39, (R)-5-(6-(4-(2-(3-chlorophenyl)-2-(dimethylamino)acetyl)piperazin-1-yl)pyridin-3-yl)-7-(1-methyl-1H-pyrazol-4-yl)imidazo[1,2-a]pyridine-3-car-bonitrile]	39
CN(C)C(C(=O)N1CCN(c2ccc(-c3cc(-c4cnn(C)c4)cc4ncc(C#N)n34)cn2)CC1)c1ccc(F)c(Cl)c1 (stereo not shown) [Example 41, 5-(6-(4-(2-(3-chloro-4-fluorophenyl)-2-(dimethylamino)acetyl)piperazin-1-yl)pyridin-3-yl)-7-(1-methyl-1H-pyrazol-4-yl)imidazo[1,2-a]pyridine-3-carbonitrile]	12
Cc1ccc(CC(=O)N2CCN(c3ccc(-c4cc(-c5cnn(C)c5)cc5ncc(C#N)n45)cn3)CC2)nc1 [Example 47, 7-(1-methyl-1H-pyrazol-4-yl)-5-(6-(4-(2-(5-methylpyridin-2-yl)acetyl)pi-perazin-1-yl)pyridin-3-yl)imidazo[1,2-a]pyridine-3-carbonitrile]	88
COc1ccc(CN2C3CC2CN(c2ccc(-c4cc(OCCN=S(C)(C)=O)cc5ncc(C#N)n45)cn2)C3)cn1 [Example 58, 7-(2-((Dimethyl(oxo)-λ^6-sulfanylidene)amino)ethoxy)-5-(6-(6-((6-methoxypyridin-3-yl)methyl)-3,6-diazabicyclo[3.1.1]heptan-3-yl)pyridin-3-yl)imidazo[1,2-a]pyridine-3-carbonitrile]	120
[2H]C([2H])([2H])Oc1ccc(OC2CCN(c3ccc(-c4cc(OCC(C)(C)O)cc5ncc(C#N)n45)cn3)CC2)cn1 [Example 61, 7-(2-Hydroxy-2-methylpropoxy)-5-(6-(4-((6-(methoxy-d3)pyridin-3-yl)oxy)piperidin-1-yl)pyridin-3-yl)imidazo[1,2-a]pyridine-3-carbonitrile]	15
COc1ccc(OC2CCN(c3ccc(-c4cc(OCCN=S(C)(C)=O)cc5ncc(C#N)n45)cn3)CC2)cn1 [Example 70, 7-(2-((dimethyl(oxo)-λ^6-sulfanylidene)ami-no)ethoxy)-5-(6-(4-((6-methoxypyridin-3-yl)oxy)piperidin-1-yl)pyridin-3-yl)imid-azo[1,2-a]pyridine-3-carbonitrile]	71
Cc1ccc(OC2CCN(c3ccc(-c4cc(OCC(C)(C)O)cc5ncc(C#N)n45)cn3)CC2)cn1 [Example 71, 7-(2-hydroxy-2-methylpropoxy)-5-(6-(4-((6-methylpyridin-3-yl)oxy)piperidin-1-yl)pyridin-3-yl)imidazo[1,2-a]pyridine-3-carbonitrile]	22
CC(C)(O)COc1cc(-c2ccc(N3CCC(Oc4ccc(C5CC5)nc4)CC3)nc2)n2c(C#N)cnc2c1 [Example 72, 5-(6-(4-((6-cyclopropylpyridin-3-yl)oxy)piperidin-1-yl)pyridin-3-yl)-7-(2-hydroxy-2-methylpropoxy)imidazo[1,2-a]pyridine-3-carbonitrile]	17
CCc1ccc(OC2CCN(c3ccc(-c4cc(OCC(C)(C)O)cc5ncc(C#N)n45)cn3)CC2)cn1 [Example 73, 5-(6-(4-((6-ethylpyridin-3-yl)oxy)piperidin-1-yl)pyridin-3-yl)-7-(2-hydroxy-2-meth-ylpropoxy)imidazo[1,2-a]pyridine-3-car-bonitrile]	1
Cc1ccc(OC2CCN(c3ccc(-c4cc(OCC5(O)CC5)cc5ncc(C#N)n45)cn3)CC2)cn1 [Example 74, 7-((1-hydroxycyclopropyl)methoxy)-5-(6-(4-((6-methylpyridin-3-yl)oxy)piperidin-1-yl)pyridin-3-yl)imidazo[1,2-a]pyridine-3-carbonitrile]	23
CCc1ccc(OC2CCN(c3ccc(-c4cc(OCC5(O)CC5)cc5ncc(C#N)n45)cn3)CC2)cn1 [Example 75, 5-(6-(4-((6-ethylpyridin-3-yl)oxy)piperidin-1-yl)pyridin-3-yl)-7-((1-hydroxycyclo-propyl)methoxy)imidazo[1,2-a]pyridine-3-carbonitrile]	1
N#Cc1cnc2cc(OCC3(O)CC3)cc(-c3ccc(N4CCC(Oc5ccc(C6CC6)nc5)CC4)nc3)n12 [Example 76, 5-(6-(4-((6-cyclopropylpyridin-3-yl)oxy)piperidin-1-yl)pyridin-3-yl)-7-((1-hydroxy-cyclopropyl)methoxy)imidazo[1,2-a]pyr-idine-3-carbonitrile]	5
CC(C)(O)COc1cc(-c2ccc(N3CCC(Oc4ccc(C(F)F)nc4)CC3)nc2)n2c(C#N)cnc2c1 [Example 77, 5-(6-(4-((6-(difluoromethyl)pyridin-3-yl)oxy)piperidin-1-yl)pyridin-3-yl)-7-(2-hy-droxy-2-methylpropoxy)imidazo[1,2-a]pyr-idine-3-carbonitrile]	48
N#Cc1cnc2cc(OCC3(O)CC3)cc(-c3ccc(N4CCC(Oc5ccc(C(F)F)nc5)CC4)nc3)n12 [Example 78, 5-(6-(4-((6-(difluoromethyl)pyridin-3-yl)oxy)piperidin-1-yl)pyridin-3-yl)-7-((1-hy-droxycyclopropyl)methoxy)imidazo[1,2-a]pyridine-3-carbonitrile]	13
CCOc1ccc(OC2CCN(c3ccc(-c4cc(OCC5(O)CC5)cc5ncc(C#N)n45)cn3)CC2)cn1 [Example 79, 5-(6-(4-((6-ethoxypyridin-3-yl)oxy)piperi-din-1-yl)pyridin-3-yl)-7-((1-hydroxycyclo-propyl)methoxy)imidazo[1,2-a]pyridine-3-carbonitrile]	1
C#Cc1ccc(OC2CCN(c3ccc(-c4cc(OCC(C)(C)O)cc5ncc(C#N)n45)cn3)CC2)cn1 [Example 80, 5-(6-(4-((6-ethynylpyridin-3-yl)oxy)piper-idin-1-yl)pyridin-3-yl)-7-(2-hydroxy-2-methylpropoxy)imidazo[1,2-a]pyridine-3-carbonitrile]	7
